Data taken from article PMC10250256, “A radiohybrid theranostics ligand labeled with fluorine-18 and lutetium-177 for fibroblast activation protein-targeted imaging and radionuclide therapy” (European Journal of Nuclear Medicine and Molecular Imaging, 2023).

Tests used:
HT-1080-FAP cells [1] = assay: cell uptake in HT-1080-FAP cells; assay type: cell-based, human
Experimental: (§1) The human fibrosarcoma cell lines HT-1080 and HT-1080-FAP transferred with human FAP gene were both cultured in Dulbecco modified Eagle medium supplemented with 10% fetal bovine serum (Gibco, USA) at 37℃/5% carbon dioxide. For cell uptake experiments, HT-1080-FAP cells (~ 1 × 10^5/well) or HT-1080 (~ 1 × 10^5/well) were seeded in 24-well plates for 24–48 h and incubated at 37℃ with radiolabeled compounds (74 kBq/well) in 0.5 mL of serum-free medium for indicated times. Non-specific binding was determined by co-incubating with 100 μM FAP inhibitor UAMC1110. For competitive FAP binding assays, HT-1080-FAP cells were incubated with [^177Lu]Lu-FAPI-04 (74 kBq/well) in the presence of different concentrations (10^−3–10^4 nM) of competing non-radioactive ligands. For internalization experiments, the radiotracer-incubated cells were washed twice with PBS (pH 7.4), followed by glycine–HCl (0,05 M, pH = 2.8) solution to distinguish between cell surface–bound (acid-releasable) and internalized (acid-resistant) radioligand. For efflux experiments, cells were preincubated with [^177Lu]21 or [^177Lu]Lu-FAPI-04 for 1 h and subsequently incubated at 37 °C in a medium free of radiotracer and serum for different time periods. The medium was removed and the cells were washed twice with cold PBS (pH 7.4) and subsequently lysed with 0.5 mL of NaOH (1 M). Cell lysates were collected and the radioactivity was determined using a γ-counter.

HT-1080-FAP cells [2] = assay: efflux experiments in HT-1080-FAP cells; assay type: cell-based, human; settings: preincubated 1 h, up to 4 h
Experimental: as §1, with “The medium was removed and the cells were washed twice with cold PBS (pH 7.4) and subsequently lysed with 0.5 mL of NaOH (1 M).” left out

HT-1080-FAP cells [3] = assay: internalization experiments in HT-1080-FAP cells; assay type: cell-based, human; settings: 10 min
Experimental: as §1, with “The medium was removed and the cells were washed twice with cold PBS (pH 7.4) and subsequently lysed with 0.5 mL of NaOH (1 M).” left out

HT-1080-FAP xenograft = assay: SPECT imaging, HT-1080-FAP xenograft; assay type: in vivo, BALB/C-nu/nu mice; settings: about 37 MBq i.v.
Experimental: (§2) All animal experiments were conducted in compliance with a protocol approved by the First Affiliated Hospital of Sun Yat-sen University Institutional Animal Care and Use Committee. BALB/C-nu/nu mice (4–5-week old with body weight of 16–22 g) were purchased from GemPharmatech Co., Ltd. Mice were housed under standard conditions with temperature and light control (12-h-light/12-h-dark cycle) and had free access to water and food. For the tumor model, HT-1080-FAP or HT-1080 cells (5 × 10^6) were subcutaneously injected into the right or left flank of nude mice, respectively. As the tumor diameter reached 3–4 mm, mice were treated with radioligands. Micro-PET and SPECT imaging studies, as well as biodistribution, were conducted when the tumor diameter reached 5–10 mm.
The mice bearing HT-1080-FAP or HT-1080 xenografts were injected with about 37 MBq of [^177Lu]21 via the tail vein, and SPECT (Siemens, Symbia Intevo Bold, Germany) was performed at 2 h to 8 d after injection. The SPECT parameters were as follows: medium-energy collimator, energy peaks of 113 and 208 keV, matrix of 256 × 256, and scan duration of 10 min.

HT-1080-FAP xenografts = assay: radionuclide treatment of HT-1080-FAP xenografts; assay type: in vivo, BALB/C-nu/nu mice
Experimental: as §2
Radionuclide therapy was performed when the diameter of HT-1080-FAP xenografts reached 3–4 mm. The mice were randomly divided into 4 groups (n = 4) and intravenously injected with [^177Lu]21 (24.05 MBq), [^177Lu]21 (9.25 MBq), [^177Lu]Lu-FAPI-04 (24.05 MBq) and saline, respectively. Tumor volume (volume = length × width^2/2) and mouse weight were measured every 2–3 d. Endpoint criteria were defined as weight loss of more than 15%, tumor volume greater than 1500 mm^3, or active ulcerations of the tumor. […]

[4] = in vitro stability in PBS or murine serum (radio-HPLC); assay type: in vitro ADME
Experimental: [^18F]21 or [^177Lu]21 (50 μCi, 10 μL) was added to PBS (90 μL) or murine serum (90 μL) and the mixture was incubated at 37 °C for a certain time ([^18F]21: 2 h, [^177Lu]21: 8 d). The PBS mixture was injected directly into the radio-HPLC for analysis. The murine serum was precipitated with 0.1 mL of acetonitrile and centrifuged (10,000 rpm, 5 min). The supernatant was measured and analyzed by the radio-HPLC to determine the stability. For in vivo stability study, the radio tracers were injected into the tail vein of ICR mice and samples of blood were collected after a certain time post injection (pi) ([^18F]21: 4 h, [^177Lu]21: 9 h). The plasma proteins were precipitated using an equal volume of acetonitrile and centrifuged (10,000 rpm, 5 min). The RCP of radio tracer in supernatants were analyzed and quantified by radio-HPLC. The radio-HPLC method was as follows: A: 0.1% TFA in H2O, B: ACN, 0–10 min, 0–100% B. The flow rate was 1 mL/min, and the C18 column (4.6 × 150 mm, 5 μm, ZORBAX, Agilent) was used. When using HPLC to assess the stability of [^177Lu]21, the effluent was collected every 30 s due to its less radioactivity, and samples were measured by an automatic γ-counter (2480 Wizard2, Perkin Elmer). The counted samples were plotted as intensity (cpm) against fraction.

For `CC(C)(C)[Si](F)(c1ccc(C(=O)NCC(NC(=O)CCC(C(=O)O)N2CCN(CC(=O)[O-])CCN(CC(=O)[O-])CCN(CC(=O)[O-])CC2)C(=O)NCC2CCC(C(=O)NCCCOc3ccc4nccc(C(=O)NCC(=O)N5CC(F)(F)CC5C#N)c4c3)CC2)cc1)C(C)(C)C.[177Lu+3]` (centres unmarked) [[^177Lu]21], the cell uptake (HT-1080-FAP cells [1]; 1 h incubation) was 72.53% ± 3.43, the cell uptake (HT-1080-FAP cells [1]; 24 h incubation) was 45.06% ± 2.62 and the “cell uptake with competitor” value (HT-1080-FAP cells [1]; co-incubation with 100 μM FAP inhibitor UAMC1110) was “could be blocked by FAP inhibitor”. For the same compound, the efflux (HT-1080-FAP cells [2]) was “slower excretion up to 4 h than [^177Lu]Lu-FAPI-04”, the internalization rate (HT-1080-FAP cells [3]) was over 80% and the “time pi up to which high accumulation was observed (SPECT)” value (HT-1080-FAP xenograft) was “up to 144 h”. For the same compound, the “time up to which tumor uptake could be visualized (SPECT)” value (HT-1080-FAP xenograft) was “up to 6 days”, the “suppression of tumor growth versus control” value (HT-1080-FAP xenografts; 9.25 MBq i.v.) was “no statistically significant difference in comparison to control” and the “average relative tumor volume” value (HT-1080-FAP xenografts; 24.05 MBq i.v., end of study) was 4.55. For the same compound, the “RCP after incubating in saline and serum” value ([4]; 8 days, 37 °C) was over 90% and the in vitro stability ([4]; as summarised in discussion) was over 90%.
